Measurements as given in US20190231748A1, “COMPOSITION FOR VAGINA AND ANTIMICROBIAL AGENT COMBINATION FOR USE IN PREPARING COMPOSITION FOR VAGINA” (Shenzhen Eulikan Biotechnology Co., Ltd., priority 2016, published 2019).

Columns and labels:
Format in all cases: cell-based
[1] = system: Lactococcus lactis and Lactobacillus jensenii; test: pH of test gel after co-culture of Lactococcus lactis and Lactobacillus jensenii; details: cultivated 32 hours
From the text: 2.1 Experimental strains: one Lactococcus lactis strain and one Lactobacillus jensenii strain, both were clinical isolates.
The pH value was adjusted to 5.0.
2.4 Experimental procedure: the test gel tubes containing different concentrations of antimicrobial agents, as shown in Tables 1 to 6 were inoculated with 100 microliters of Lactobacillus lactis suspension and 100 microliters of Lactobacillus jensenii suspension at the same time. The turbidities of both suspensions were 0.5 MCF. Then the tubes were cultivated at 37° C. and under 5 percent CO2 for 32 hours. Then the changes of the pH values of gels were tested. The gels were smeared, Gram stained, and microscopically examined for the morphology and quantity of bacteria.

[2] = system: three strains of Escherichia coli isolated from the vaginal secretion of patients with vaginitis; test: Growth in enrichment broth (turbidity after 24 hours), clinical strains
From the text: (§1) a. Experimental strains, three strains of Escherichia coli and three strains of Staphylococcus aureus, which were all isolated from the vaginal secretion of patients with vaginitis.
(§2) b. Enrichment broth, which contained 1 percent of yeast extract powder, 9 percent of sucrose, 0.025 percent of manganese sulfate (MnSO4.4H2O), 0.058 percent of magnesium sulfate (MgSO4.7H2O), and 0.9 percent of lactic acid, the pH value of the broth was adjusted to 4.8, and the enrichment broth was sterilized for later use;
(§3) (2). Experimental groups: the requirements for aseptic operation technique were strictly followed to prepare the sterile test tubes:
(§4) a. sodium benzoate group: each test tube contained 5 milliliters of enrichment broth, and was added in 0.05 percent (weight/volume) sodium benzoate;
(§5) b. 2-phenylethanol group: each test tube contained 5 milliliters of enrichment broth, and was added in 0.05 percent (weight/volume) of 2-phenylethanol;
(§6) c. sodium propionate group: each test tube contained 5 milliliters of enrichment broth, and was added in 0.25 percent (weight/volume) of sodium propionate;
(§7) d. “a group of the combinations of sodium benzoate and sodium propionate”: each test tube contained 5 milliliters of enrichment broth, and was added in 0.05 percent (weight/volume) of sodium benzoate and 0.25 percent (weight/volume) of sodium propionate;
(§8) e. “a group of the combinations of sodium benzoate and 2-phenylethanol”: each test tube contained 5 milliliters of enrichment broth, and was added in 0.05 percent (weight/volume) of sodium benzoate and 0.05 percent (weight/volume) of 2-phenylethanol;
(§9) f. “a group of the combinations of sodium propionate and 2-phenylethanol”: each test tube contained 5 milliliters of enrichment broth, and was added in 0.25 percent (weight/volume) of sodium propionate and 0.05 percent (weight/volume) of 2-phenylethanol;
(§10) g. “a group of the combinations of sodium benzoate, sodium propionate and 2-phenylethanol”: each test tube contained 5 milliliters of enrichment broth, and was added in 0.05 percent (weight/volume) of sodium benzoate, 0.25 percent (weight/volume) of sodium propionate, and 0.05 percent (weight/volume) of 2-phenylethanol;
(§11) h. positive control: one tube that contained 5 milliliters of enrichment broth without adding in any of the 2-phenylethanol, sodium benzoate, and sodium propionate, but inoculated the suspension of Escherichia coli or Staphylococcus aureus.
(§12) i. negative control: one tube that contained 5 milliliters of enrichment broth without adding in any of the 2-phenylethanol, sodium benzoate, and sodium propionate, and not inoculated the suspension of Escherichia coli or Staphylococcus aureus.
(§13) The requirements for aseptic operation technique were strictly followed to prepare the bacterial suspensions. The colonies of Escherichia coli and Staphylococcus aureus were diluted with physiological saline respectively to prepare bacterial suspension. The turbidities of the Escherichia coli suspension and the Staphylococcus aureus suspension were adjusted to 0.5 MCF (about 10^8 CFU/ml) by a turbidimeter. 1 milliliter of the 0.5 MCF bacterial suspensions were added into 9 milliliters of the enrichment broth respectively, so each bacterial solution was diluted for ten times to contain 10^7 CFU/ml of bacterial organisms.
(§14) The requirements for aseptic operation technique were strictly followed to take 100 microliters of the prepared bacterial suspensions respectively, and to add the bacterial suspensions into the aforesaid test tubes from a to h as well as positive control tube. No bacterial suspension was added into the negative control tube i.
(§15) The above tubes were cultured in a biochemical incubator at 37° C. for 24 hours, then turbidity changes of the test tube solutions were observed and recorded.
(§16) Remark: “+” means the growth of bacteria; “−” means no growth of bacteria.

[3] = system: three strains of Staphylococcus aureus isolated from the vaginal secretion of patients with vaginitis; test: as above
From the text: as §1, §2, §3, §4, §5, §6, §7, §8, §9, §10, §11, §12, §13, §14, §15, §16

[4] = 0.25 percent (weight/volume) in enrichment broth pH 4.8, 37° C. 24 hours
[5] = 0.05 percent (weight/volume) in enrichment broth pH 4.8, 37° C. 24 hours

| Compound | pH value ([1]; 0.1 % in test gel) | pH value ([1]; 0.2 % in test gel) | pH value ([1]; 0.3 % in test gel) | pH value ([1]; 0.4 % in test gel) | pH value ([1]; 0.5 % in test gel) | pH value ([1]; 0.6 % in test gel) | pH value ([1]; 0.7 % in test gel) | could inhibit the growth of Escherichia coli (agent alone, words) [2, 4] | could inhibit the growth of Staphylococcus aureus (agent alone, words) [3, 4] | pH value ([1]; 0.15 % in test gel) | pH value ([1]; 0.25 % in test gel) | pH value ([1]; 0.35 % in test gel) | pH value ([1]; 0.45 % in test gel) | could inhibit the growth of Escherichia coli (agent alone, words) [2, 5] | could inhibit the growth of Staphylococcus aureus (agent alone, words) [3, 5] |
| --- | --- | --- | --- | --- | --- | --- | --- | --- | --- | --- | --- | --- | --- | --- | --- |
| CCC(=O)[O-].[Na+] [sodium propionate] | 3.8 | 3.8 | 3.8 | 4.4 | 4.4-4.6 | 4.6 | 4.8 | no one of the three antimicrobial agents | no one of the three antimicrobial agents |  |  |  |  |  |  |
| OCCc1ccccc1 [2-phenylethanol] |  | <3.8 | <3.8 | 4.4 | 4.8 |  |  |  |  | <3.8 | <3.8 | 3.8-4.1 | 4.6 | no one of the three antimicrobial agents | no one of the three antimicrobial agents |
